Measurements taken from US20030158094A1, “Combination product of an aryl-substituted propanolamine derivative with at least one other active ingredient and the use of the product” (priority 2001, published 2003).

What was measured:
Format in all cases: in vivo
[1] = system: Male Syrian hamsters (Mesocricetus auratus); test: Plasma lipids in cholesterol-fed hamsters, ezetimibe (K00 04513) plus C1; settings: feed +0.1% CH; for HDL % / Plasma parameter Cholesterol % / Plasma parameter LDL % / Plasma parameter Triglycerides %: cholesterol ctr. = 100
Procedure: (§1) Hamsters were used for the biological testing of the combination product of the invention. Male Syrian hamsters (Mesocricetus auratus) from 8 to 10 weeks of age were used for the experiment. The animals received a standard feed (Teklad 8604M) supplemented with 0.1% cholesterol. An additional normal control group received only standard feed. The test substances were administered orally by gavage once a day on 12 consecutive days, and the control group was treated with the vehicle. Feces were collected on days 5 and 6 of the experiment for bile acid analysis. Retroorbital blood was taken from the animals on day 10 of the experiment, and the lipid levels in the plasma were determined. Radioactive tracers were administered orally to the animals on day 11 of the experiment to determine the cholesterol absorption in analogy to the method described by Zilversmith et al. On day 13 of the experiment, the animals were sacrificed, and the animals' livers were removed for cholesterol analysis and preparation of microsomes. The 7α-hydroxylase activity was determined in the liver microsomes ex vivo by a modified method of Hylemon et al. [table]

[2] = system: Male Syrian hamsters (Mesocricetus auratus); test: Cholesterol absorption (3H-sitosterol/14C-cholesterol, feces) in hamsters, ezetimibe (K00 04513) plus C1; settings: feed +0.1% CH; for CH absorption % of ctr.: normal ctr. = 100.0
Procedure: as §1

[3] = system: Male Syrian hamsters (Mesocricetus auratus); test: Liver cholesterol (HPLC) in cholesterol-fed hamsters, ezetimibe (K00 04513) plus C1; settings: feed +0.1% CH; for Liver Cholesterol %: cholesterol ctr. = 100
Procedure: as §1

[4] = system: Male Syrian hamsters (Mesocricetus auratus); test: Liver cholesterol (HPLC) in cholesterol-fed hamsters, C1 with Caromax; settings: 30 mg/kg/d C1, feed +0.1% CH
Procedure: as §1, with “[table] Liver cholesterol (HPLC)=1×500 mg in EtOH/KOH (sample is also used for CH synthesis)” for “[table]”

[5] = system: Male Syrian hamsters (Mesocricetus auratus); test: Plasma lipids in cholesterol-fed hamsters, combination of compound C1 with Caromax; settings: 30 mg/kg/d C1, feed +0.1% CH
Procedure: as §1, with “[table] Male Syrian hamsters (Mesocricetus auratus) supplied by Harlan 80-100 g at the start of adaptation Safety parameters (CH; TG; ALAT/ASAT; AP; HDL/LDL) Preliminary value and 2 days before end of the experiment (isoflurane anesthesia) by retroorbital blood sampling” for “[table]”

[6] = system: Male Syrian hamsters (Mesocricetus auratus); test: Liver cholesterol synthesis (14C-octanoate i.v.) in cholesterol-fed hamsters, C1 with Caromax; settings: 30 mg/kg/d C1, feed +0.1% CH
Procedure: Hamsters were used for the biological testing of the combination product of the invention. Male Syrian hamsters (Mesocricetus auratus) from 8 to 10 weeks of age were used for the experiment. The animals received a standard feed (Teklad 8604M) supplemented with 0.1% cholesterol. An additional normal control group received only standard feed. The test substances were administered orally by gavage once a day on 12 consecutive days, and the control group was treated with the vehicle. [table] Cholesterol Synthesis i.v. administration of ^14C-octanoate 10 μCi/100 g of animal 1 hour before the end of the experiment (isoflurane anesthesia) Removal of 2×500 mg of liver in EtOH/KOH

[7] = group 3, 0.1 mg/kg/d K 00 04513
[8] = group 4, 0.3 mg/kg/d K 00 04513

## O=C1[C@H](CC[C@H](O)c2ccc(F)cc2)[C@@H](c2ccc(O)cc2)N1c1ccc(F)cc1 [K 00 04513, ezetimibe, reference compound]
[1]; [7]
  HDL: 1.98 mmol/L
  Plasma parameter Cholesterol: 3.73 mmol/L
  Plasma parameter LDL: 1.06 mmol/L
  Plasma parameter Triglycerides: 1.99 mmol/L
  HDL %: 92%
  Plasma parameter Cholesterol %: 91%
  Plasma parameter LDL %: 94%
  Plasma parameter Triglycerides %: 98%
[1]; [8]
  HDL: 1.92 mmol/L
  Plasma parameter Cholesterol: 2.99 mmol/L
  Plasma parameter LDL: 0.40 mmol/L
  Plasma parameter Triglycerides: 1.87 mmol/L
  HDL %: 89%
  Plasma parameter Cholesterol %: 73%
  Plasma parameter LDL %: 35%
  Plasma parameter Triglycerides %: 92%
[1]; group 5, 1 mg/kg/d K 00 04513
  HDL: 1.71 mmol/L
  Plasma parameter Cholesterol: 2.53 mmol/L
  Plasma parameter LDL: 0.23 mmol/L
  Plasma parameter Triglycerides: 1.79 mmol/L
  HDL %: 80%
  Plasma parameter Cholesterol %: 62%
  Plasma parameter LDL %: 20%
  Plasma parameter Triglycerides %: 88%
[2]; [7]
  CH absorption % absorption: 47.4%
  CH absorption % of ctr.: ±96.8%
[2]; [8]
  CH absorption % absorption: 15.6%
  CH absorption % of ctr.: ±31.8%
[2]; group 5, 1 mg/kg/d K 00 04513
  CH absorption % absorption: 5.8%
  CH absorption % of ctr.: ±11.9%
[3]; [7]
  Liver Cholesterol: 11.52 mg/g
  Liver Cholesterol %: 105%
[3]; [8]
  Liver Cholesterol: 2.00 mg/g
  Liver Cholesterol %: 18%
[3]; group 5, 1 mg/kg/d K 00 04513
  Liver Cholesterol: 1.78 mg/g
  Liver Cholesterol %: 16%

## O=C(CCCCCCCCCCNC(=O)[C@H](O)[C@@H](O)[C@H](O)[C@H](O)CO)Nc1ccccc1[C@@H](Nc1ccccn1)[C@H](c1ccccn1)[C@H](O)c1ccccc1 [C1]
[4]
  Liver Cholesterol: 14.72 mg/g
[4]; hyperlip. ctr. = 100
  Liver Cholesterol %: 54%
[1]; group 6, 3 mg/kg/d C1
  HDL: 2.20 mmol/L
  Plasma parameter Cholesterol: 3.92 mmol/L
  Plasma parameter LDL: 0.98 mmol/L
  Plasma parameter Triglycerides: 1.84 mmol/L
  HDL %: 102%
  Plasma parameter Cholesterol %: 96%
  Plasma parameter LDL %: 87%
  Plasma parameter Triglycerides %: 90%
[1]; group 7, 10 mg/kg/d C1
  HDL: 2.00 mmol/L
  Plasma parameter Cholesterol: 3.70 mmol/L
  Plasma parameter LDL: 0.78 mmol/L
  Plasma parameter Triglycerides: 2.35 mmol/L
  HDL %: 93%
  Plasma parameter Cholesterol %: 90%
  Plasma parameter LDL %: 69%
  Plasma parameter Triglycerides %: 116%
[1]; group 8, 30 mg/kg/d C1
  HDL: 2.02 mmol/L
  Plasma parameter Cholesterol: 3.66 mmol/L
  Plasma parameter LDL: 0.80 mmol/L
  Plasma parameter Triglycerides: 2.02 mmol/L
  HDL %: 94%
  Plasma parameter Cholesterol %: 89%
  Plasma parameter LDL %: 71%
  Plasma parameter Triglycerides %: 99%
[5]
  Cholesterol: 3.58 mmol/L
  HDL-cholesterol: 2.42 mmol/L
  LDL-cholesterol: 0.88 mmol/L
  Triglycerides: 1.49 mmol/L
[5]; hyperlip. ctr. = 100
  Cholesterol %: 89%
  HDL-cholesterol %: 96%
  LDL-cholesterol %: 75%
  Triglycerides %: 102%
[2]; group 6, 3 mg/kg/d C1
  CH absorption % absorption: 39.6%
  CH absorption % of ctr.: ±80.9%
[2]; group 7, 10 mg/kg/d C1
  CH absorption % absorption: 49.1%
  CH absorption % of ctr.: ±100.1%
[2]; group 8, 30 mg/kg/d C1
  CH absorption % absorption: 38.3%
  CH absorption % of ctr.: ±78.2%
[6]
  Liver Sterol biosynthesis: 73 dpm/g/h
[6]; normal ctr. I = 100
  Liver Sterol biosynthesis %: 18%
[3]; group 6, 3 mg/kg/d C1
  Liver Cholesterol: 10.99 mg/g
  Liver Cholesterol %: 100%
[3]; group 7, 10 mg/kg/d C1
  Liver Cholesterol: 9.50 mg/g
  Liver Cholesterol %: 86%
[3]; group 8, 30 mg/kg/d C1
  Liver Cholesterol: 7.18 mg/g
  Liver Cholesterol %: 65%
